Experimental data reported in US20260108602A1, “METHODS AND SYSTEMS FOR IMPROVING ANTI-CANCER THERAPIES” (Osasuna Therapeutics SA, priority 2023, published 2026).

How the values were obtained:
[1] = test system: Dbi^+/+ and Dbi^−/− HCC cells; assay: CCK-8 viability assay of primary HCC cells treated with ferroptosis inducers; format: cell-based, mouse; details: ferroptosis inducer combined with Dbi knockout; normalized to respective Dbi^+/+ and Dbi^−/− vehicle controls
Experimental: (FIG. 26A-FIG. 26D). Groups receiving ferroptosis inducers were normalized to their respective Dbi^+/+ and Dbi^−/− vehicle (Veh) treated control groups.
Proliferation assays. CCK-8 assays were performed with a commercial kit. For colony formation assays, HEPG-2 (NC, SH1, SH2, and SH3, 1000 cells/well), HUH-7 (NC, SH1, SH2, and SH3, 1000 cells/well) and Hep55.1C (NC, SH1, SH2, and SH3, 500 cells/well) cancer cells were seeded into 6-well plates in 2 mL medium with 10% FBS. The medium was changed every 3 days until control (NC) wells approached confluency, within 7-14 days. After gently washed twice with PBS, colonies were fixed with 4% paraformaldehyde for 30 min and stained with 0.2% crystal violet for 30 min at room temperature. The colony number (colonies >0.3 mm) was counted with isoftware. All experiments were performed in triplicates.
Six-well plates were coated with 2% FBS/PBS+0.1% laminin. HCC tumors were isolated from NASH-driven mouse model (WD+D-fructose+D-glucose in water+CCl4 administered to DBI^+/+ or DBI^−/− mice) and washed twice with ice-cold PBS. The tumor tissues were transferred to 10 cm plates, minced completely with a razor blade and then transferred to 15 mL falcon tubes. Ten mL 2 mg/mL collagenase dispase solution was added, the cells were incubated rotating for 30 min at 37° C. and were filtered through 100 μm meshes into 50 mL falcon tubes, before addition of 10 mL 2% FBS/PBS to wash the tissues. The samples were then filtered sequentially through 70 μm and 40 μm strainers, brought up to 15 mL volume and centrifuged again (room temperature (RT), 1000 rpm, 2 min). The cells were then resuspended in 5 mL of 1×red blood cell (RBC) lysis buffer, incubated on ice for 10 min before addition of 5 mL 2% FBS/PBS, followed by spinning (RT, 1000 rpm, 2 min). The washing step was repeated 2 times, and the cells were resuspended in culture medium (500 mL DMEM+10% FBS+1×ITS+20 μl EGF (1 μg/μl)+20 μl IGFII (0.2 μg/μl)), before seeding into 6-well plates.

TC1 NSCLC cells = assay: Orthotopic TC1 Luc lung cancer model (bioluminescence imaging); format: in vivo, C57BL/6J mice; details: corticosterone in drinking water + OXA + anti-PD1
Experimental: TC-1—To establish the orthotopic TC1 model, wild type TC1 Luc cells (5×10^5 in 100 μL PBS) were intravenously injected to wild type C57BL/6J mice. Tumor incidence and development were monitored by in vivo photonic imaging of tumor cells' luciferase activity. About 7 days after injection, tumor incidence in the lung was detected at an exposure time of 4 min, and mice were randomized according to quantified tumor sizes and assigned to different groups for treatment as described below. Anti-DBI or isotype control antibody was intraperitoneally (i.p.) injected on day 9, at the dose of 2.5 mg/kg body weight, and on day 10, then maintained every other day until day 18. […]
Next, the positive effects of anti-ACBP/DBI mAb on chemo-immunotherapy in another model, namely non-small cell lung cancers (NSCLC) were confirmed. TC1 NSCLC cells expressing luciferase injected intravenously (i.v.) into syngeneic immunocompetent C57BL/6J mice form orthotopic lung cancers that can be monitored by bioluminescence imaging. […] From day 9 post-inoculation of TC1 cells, NSCLC-bearing mice were periodically i.p. injected with anti-ACBP/DBI mAb (or an isotype control mAb) and then were treated on day 11 post-inoculation with OXA (i.p. once) and anti-PD1 mAb (injected i.p. on days 19, 23 and 27 post-TC1 injection) (FIG. 4A) and tumor progression was determined by bioluminescence imaging (FIG. 4B). […]

[2] = test system: MCA205 fibrosarcoma cells; assay: Anti-tumor vaccination assay (MTX-treated MCA205 cells, rechallenge with live cells); format: in vivo, C57BL/6J mice; details: CORT in drinking water + vaccination with MTX-treated MCA205 cells
Experimental: Wild-type MCA205 cells were treated with MTX (4 μM) for 24 h. Then supernatants and detached cells were collected and centrifuged, and the pellet was further washed with ice-cold PBS. 2×10^6 cells in 100 μl PBS were s.c. injected to the left flank of immunocompetent C57BL/6J mice (day −7). PBS was injected as a negative control. One week later, all mice were confirmed tumor-free in the vaccination flank and living cancer cells (2×10^5 cells per mouse for MCA205 cells) were injected in the right flank of vaccinated mice (day 0). Corticosterone and neutralizing anti-DBI monoclonal antibody were continually administrated throughout the experiment. Tumor growth was regularly monitored for the following weeks.
After the first week of treatment, the animals were subcutaneously (s.c.) injected with mitoxantrone (MTX)-treated MCA205 fibrosarcoma cells, knowing that MTX-induces ICD and that MTX-treated cancer cells induce a protective anti-cancer immune response that suppresses, delays or reduces the growth of tumors that would grow in naïve mice after injection of live, untreated MCA205 fibrosarcoma cell. [Panaretakis T. et al., Mechanisms of pre-apoptotic calreticulin exposure in immunogenic cell death, EMNO J, 2009, 28 (5), pp. 578-590.]

[3] = test system: E0771 breast cancer cells; assay: Subcutaneous E0771 breast cancer model with anti-PD1 immunotherapy
Experimental: E0771—For the establishment of syngeneic solid tumors, C57BL/6J mice (8-weeks-old female) were injected subcutaneously (s.c.) with 5×10^5 wild type E0771 in the right lower quadrant of the abdomen alongside of the mammary gland (close to the orthotopic site). Approximately 7 days after injection, tumor growth was monitored with an electronic caliper and mice were assigned to different groups. From day 8, mice were treated with a neutralizing anti-DBI monoclonal antibody (5 mg/kg) or its isotype (IgG2A, 5 mg/kg) every two days. At the same time, free corticosterone (Sigma-Aldrich) was added to the drinking water (0.1 mg/ml; water/ethanol 0.66%). Anti-PD1 monoclonal antibody (αPD1; 10 mg/kg) was injected at days 12, 15, 18 and 21. Tumor growth was monitored routinely with an electronic caliper.
For tumor growth experiments, longitudinal analyses were performed by linear mixed effect modeling of tumor sizes. […]
C57BL/6J mice were inoculated subcutaneously (s.c.) with syngeneic E0771 breast cancer cells. Six days later treatment of corticosterone (CORT or as a control with vehicle only, 0.66% ethanol, which was administered in the drinking water) and anti-ACBP/DBI mAb (or the isotype control mAb, both injected i.p. three times per week) was initiated and tumor growth was monitored over several weeks. […]

Row | SMILES | viability (CCK-8) [1] | chemo-immunotherapeutic effect (tumor size by bioluminescence) (TC1 NSCLC cells) | vaccination effect [2] | tumor growth (effect of anti-PD1) ([3]; CORT in drinking water + anti-PD1) | animal survival (efficacy of anti-PD1) ([3]; corticotherapy + anti-PD1)
1 | CC(C)Oc1ccc(C(=O)Cn2ccnc2)cc1-n1c(CN2CCN(C(=O)COc3ccc(Cl)cc3)CC2)nc2ccccc2c1=O [IKE, imidazole ketone erastin] | particularly vulnerable to losing their viability | – | – | – | –
2 | C[C@]12C[C@H](O)[C@H]3[C@@H](CCC4=CC(=O)CC[C@@]43C)[C@@H]1CC[C@@H]2C(=O)CO [corticosterone] | – | strongly interfered | reduced this vaccination effect | lost | loss
3 | CCCCC/C=C\C/C=C\CCCCCCCC(=O)O [LA, linoleic acid] | particularly vulnerable to losing their viability | – | – | – | –
4 | COC(=O)c1ccc([C@@H]2c3[nH]c4ccccc4c3C[C@@H](C(=O)OC)N2C(=O)CCl)cc1 [RSL3] | particularly vulnerable to losing their viability | – | – | – | –
